Among the data in patent publication US8741926B2, “Macrocyclic inhibitors of hepatitis C virus” (Tibotec Pharmaceuticals Ltd., priority 2005, dated 2014) are ring closure, isolated yield, EC50 and Ki values, retold here.

Where two headings read alike, the source gives them in different places.

For data set [1] the following is noted: rcm bond, 14-membered ring, 1,2-dichloroethane.
The test system of data set [2] is HCV type 1b replicon in Huh-7 luc/neo (Huh-Luc) cells. Put plainly: Replicon assay: inhibition of HCV RNA replication in Huh-Luc cells (luciferase). The format is cell-based. The conditions noted are these: luciferase activity, incubation of three days. The protocol: The in vitro antiviral activity against HCV of the compounds of formula (I) was tested in a cellular HCV replicon system based on Lohmann et al. (1999) Science 285:110-113, with the further modifications described by Krieger et al. (2001) Journal of Virology 75: 4614-4624, which is further exemplified in the examples section. This model, while not a complete infection model for HCV, is widely accepted as the most robust and efficient model of autonomous HCV RNA replication currently available. […] It will be appreciated that it is important to distinguish between compounds that specifically interfere with HCV functions from those that exert cytotoxic or cytostatic effects in the HCV replicon model, and as a consequence cause a decrease in HCV RNA or linked reporter enzyme concentration. Assays are known in the field for the evaluation of cellular cytotoxicity based for example on the activity of mitochondrial enzymes using fluorogenic redox dyes such as resazurin. Furthermore, cellular counter screens exist for the evaluation of non-selective inhibition of linked reporter gene activity, such as firefly luciferase. Appropriate cell types can be equipped by stable transfection with a luciferase reporter gene whose expression is dependent on a constitutively active gene promoter, and such cells can be used as a counter-screen to eliminate non-selective inhibitors.
The compounds of formula (I) were examined for activity in the inhibition of HCV RNA replication in a cellular assay. […] The cellular assay was based on a bicistronic expression construct, as described by Lohmann et al. (1999) Science vol. 285 pp. 110-113 with modifications described by Krieger et al. (2001) Journal of Virology 75: 4614-4624, in a multi-target screening strategy. In essence, the method was as follows.
The assay utilized the stably transfected cell line Huh-7 luc/neo (hereafter referred to as Huh-Luc). This cell line harbors an RNA encoding a bicistronic expression construct comprising the wild type NS3-NS5B regions of HCV type 1b translated from an Internal Ribosome Entry Site (IRES) from encephalomyocarditis virus (EMCV), preceded by a reporter portion (FfL-luciferase), and a selectable marker portion (neo^R, neomycine phosphotransferase). The construct is bordered by 5′ and 3′ NTRs (non-translated regions) from HCV type 1b. Continued culture of the replicon cells in the presence of G418 (neo^R) is dependent on the replication of the HCV RNA. The stably transfected replicon cells that express HCV RNA, which replicates autonomously and to high levels, encoding inter alia luciferase, are used for screening the antiviral compounds.
The replicon cells were plated in 384 well plates in the presence of the test and control compounds which were added in various concentrations. Following an incubation of three days, HCV replication was measured by assaying luciferase activity (using standard luciferase assay substrates and reagents and a Perkin Elmer ViewLux™ ultraHTS microplate imager). Replicon cells in the control cultures have high luciferase expression in the absence of any inhibitor. The inhibitory activity of the compound on luciferase activity was monitored on the Huh-Luc cells, enabling a dose-response curve for each test compound.
On the technique in general: In antiviral work, replicon cells carry a viral genome segment that copies itself.

For a further data set, the target named is HCV NS3/4A protease (Hepatitis C virus genotype 1a (isolate H77) (HCV), UniProt P27958). The data set can be described thus: Inhibition assay (enzymatic assay) of full-length NS3 protease with NS4A cofactor. In kind it is biochemical. The conditions noted are these: full-length NS3 protease 1 nM, 25 μM NS4A cofactor, depsipeptide substrate, competitive inhibition model; read-out: Ki (μM) Enzymatic assay. As to the method: [Landro, 1997 #Biochem 36 9340-9348]. […] The solutions were stored at −20° C. between measurements.
[Liu, 1999 Analytical Biochemistry 267 331-335].

Sequence of HCV NS3/4A protease (P27958 1027-1657): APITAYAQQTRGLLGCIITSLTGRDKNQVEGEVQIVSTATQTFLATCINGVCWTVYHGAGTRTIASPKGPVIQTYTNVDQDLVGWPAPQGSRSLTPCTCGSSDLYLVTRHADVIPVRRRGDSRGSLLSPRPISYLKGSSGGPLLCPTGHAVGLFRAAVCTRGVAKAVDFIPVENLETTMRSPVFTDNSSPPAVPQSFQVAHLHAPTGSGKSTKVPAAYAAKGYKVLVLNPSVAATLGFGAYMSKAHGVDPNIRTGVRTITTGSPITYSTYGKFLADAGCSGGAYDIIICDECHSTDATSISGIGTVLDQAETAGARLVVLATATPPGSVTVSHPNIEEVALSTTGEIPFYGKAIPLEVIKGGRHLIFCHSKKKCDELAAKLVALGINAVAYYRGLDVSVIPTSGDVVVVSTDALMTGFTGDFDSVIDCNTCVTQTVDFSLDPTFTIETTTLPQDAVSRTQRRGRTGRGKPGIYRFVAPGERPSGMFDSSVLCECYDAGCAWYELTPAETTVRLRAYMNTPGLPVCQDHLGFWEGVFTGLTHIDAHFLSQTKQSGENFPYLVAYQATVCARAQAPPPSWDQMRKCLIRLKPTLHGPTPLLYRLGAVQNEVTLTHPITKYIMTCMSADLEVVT

For the compound `CCOC(=O)C12CC1C=CCCCCN(C)C(=O)C1CC(Oc3cc(-c4cccc(C(C)C)n4)nc4c(C)c(OC)ccc34)CC1C(=O)N2` (centres unmarked), the ring closure, isolated yield in data set [1] (from C=CCCCCN(C)C(=O)C1CC(Oc2cc(-c3cccc(C(C)C)n3)nc3c(C)c(OC)ccc23)CC1C(=O)NC1(C(=O)OCC)CC1C=C, Hoveyda-Grubbs I (3 portions), 17.0 h) was 66%.

Consider `CCOC(=O)C12CC1C=CCCCCN(C)C(=O)C1CC(Oc3cc(-c4cccc(C)n4)nc4c(C)c(OC)ccc34)CC1C(=O)N2` (centres unmarked), for which the ring closure, isolated yield in data set [1] (from C=CCCCCN(C)C(=O)C1CC(Oc2cc(-c3cccc(C)n3)nc3c(C)c(OC)ccc23)CC1C(=O)NC1(C(=O)OCC)CC1C=C, Hoveyda-Grubbs II, 1.48 mM, 16.0 h) was 58%. Usually EC50 stands for the concentration at which the effect is half-maximal. A low value points to higher potency in that assay. The Ki is the dissociation constant of the complex between target and ligand, obtained from inhibition or displacement. In turn, `COc1ccc2c(O[C@@H]3C[C@H]4C(=O)N[C@]5(C(=O)NS(=O)(=O)C6CC6)C[C@H]5/C=C\CCCCCNC(=O)N4C3)cc(-c3nc(C(C)C)cs3)nc2c1C` (stereo in doubt) [Compound 91, N-[[18-[2-[4-(isopropyl)thiazol-2-yl]-7-methoxy-8-methylquinolin-4-yloxy]-2,15-dioxo-3,14,16-triazatricyclo[14.3.0.0^4,6]nonadec-7-en-4-yl]carbonyl]-(cyclopropyl)sulfonamide] displayed an EC50 in data set [2] (Hepatitis C virus, Huh-7, 72 h) of 0.00854 µM. Also, on HCV NS3/4A protease, the Ki is 0.05 nM.

`COc1ccc2c(O[C@@H]3C[C@H]4C(=O)N[C@]5(C(=O)NS(=O)(=O)C6CC6)C[C@H]5/C=C\CCCCCNC(=O)N4C3)cc(-c3nc(C(C)C)cs3)nc2c1Cl` (stereo in doubt) [Compound 94, N-[[18-[8-chloro-2-[4-(isopropyl)thiazol-2-yl]-7-methoxyquinolin-4-yloxy]-2,15-dioxo-3,14,16-triazatricyclo[14.3.0.0^4,6]nonadec-7-en-4-yl]carbonyl]-(cyclopropyl)sulfonamide] gave an EC50 in data set [2] (Hepatitis C virus, Huh-7, 72 h) of 0.00326 µM. In addition, the Ki at HCV NS3/4A protease turned out to be 0.1 nM.

Turning to `COc1ccc2c(O[C@@H]3C[C@H]4C(=O)N[C@]5(C(=O)NS(=O)(=O)C6(C)CC6)C[C@H]5/C=C\CCCCCNC(=O)N4C3)cc(-c3nc(C(C)C)cs3)nc2c1Cl` (stereo in doubt) [Compound 95, N-[[18-[8-chloro-2-[4-(isopropyl)thiazol-2-yl]-7-methoxyquinolin-4-yloxy]-2,15-dioxo-3,14,16-triazatricyclo[14.3.0.0^4,6]nonadec-7-en-4-yl]carbonyl](1-methylcyclopropyl)sulfonamide], a half-maximal response in data set [2] (Hepatitis C virus, Huh-7, 72 h) (EC50) required 0.00404 µM. Moreover, the Ki on HCV NS3/4A protease was found to be 0.1 nM.

Compound `COc1ccc2c(O[C@@H]3C[C@H]4C(=O)N[C@]5(C(=O)O)C[C@H]5/C=C\CCCCN(C)C(=O)[C@@H]4C3)cc(-c3nccs3)nc2c1C` [Compound 29, 17-[7-methoxy-8-methyl-2-(thiazol-2-yl)quinolin-4-yloxy]-13-methyl-2,14-dioxo-3,13-diazatricyclo[13.3.0.0^4,6]octadec-7-ene-4-carboxylic acid] registered an EC50 in data set [2] (Hepatitis C virus, Huh-7, 72 h) of 10 µM. The same measure, in the same setting: the figure for `COc1ccc2c(O[C@@H]3C[C@H]4C(=O)N[C@]5(C(=O)O)C[C@H]5/C=C\CCCCN(C)C(=O)[C@@H]4C3)cc(-c3nc(C(C)C)cs3)nc2c1C` [Compound 46, 17-[2-(4-isopropylthiazole-2-yl)-7-methoxy-8-methyl-quinolin-4-yloxy]-13-methyl-2,14-dioxo-3,13-diazatricyclo[13.3.0.0^4,6]octadec-7-ene-4-carboxylic acid] is 0.91 µM. In turn, `COc1ccc2c(O[C@@H]3C[C@H]4C(=O)N[C@]5(C(=O)NS(=O)(=O)C6(C)CC6)C[C@H]5/C=C\CCCCN(C)C(=O)[C@@H]4C3)cc(-c3nc(C(C)C)cs3)nc2c1C` [Compound 48, N-[17-[2-(4-isopropylthiazole-2-yl)-7-methoxy-8-methylquinolin-4-yloxy]-13-methyl-2,14-dioxo-3,13-diazatricyclo[13.3.0.0^4,6]octadec-7-ene-4-carbonyl](1-methylcyclopropyl)sulfonamide] yielded an EC50 in data set [2] (Hepatitis C virus, Huh-7, 72 h) of 0.00233 µM. The inhibition constant (Ki) on HCV NS3/4A protease came out at 0.25 nM.

Consider `COc1ccc2c(O[C@@H]3C[C@H]4C(=O)N[C@]5(C(=O)O)C[C@H]5/C=C\CCCCN(C)C(=O)[C@@H]4C3)cc(-c3nc(C(C)C)cs3)nc2c1Cl` [Compound 55, 17-[8-chloro-2-(4-isopropylthiazole-2-yl)-7-methoxyquinolin-4-yloxy]-13-methyl-2,14-dioxo-3,13-diazatricyclo[13.3.0.0^4,6]octadec-7-ene-4-carboxylic acid], for which, in data set [2] (Hepatitis C virus, Huh-7, 72 h), the EC50 came out at 0.367 µM. Moreover, on HCV NS3/4A protease, the Ki came to 5 nM. Regarding `COc1ccc2c(O[C@@H]3C[C@H]4C(=O)N[C@]5(C(=O)NS(=O)(=O)C6CC6)C[C@H]5/C=C\CCCCN(C)C(=O)[C@@H]4C3)cc(-c3nc(C(C)C)cs3)nc2c1Cl` [Compound 56, N-[17-[8-chloro-2-(4-isopropylthiazole-2-yl)-7-methoxyquinolin-4-yloxy]-13-methyl-2,14-dioxo-3,13-diazatricyclo[13.3.0.0^4,6]-octadec-7-ene-4-carbonyl](cyclopropyl)sulfonamide], the EC50 in data set [2] (Hepatitis C virus, Huh-7, 72 h) was 0.00293 µM.

In turn, `COc1ccc2c(O[C@@H]3C[C@H]4C(=O)N[C@]5(C(=O)NS(=O)(=O)C6(C)CC6)C[C@H]5/C=C\CCCCN(C)C(=O)[C@@H]4C3)cc(-c3nc(C(C)C)cs3)nc2c1Cl` [Compound 57, N-[17-[8-chloro-2-(4-isopropylthiazole-2-yl)-7-methoxy-quinolin-4-yloxy]-13-methyl-2,14-dioxo-3,13-diazatricyclo[13.3.0.0^4,6]octadec-7-ene-4-carbonyl] (1-methylcyclopropyl)sulfonamide] showed an EC50 in data set [2] (Hepatitis C virus, Huh-7, 72 h) of 0.00187 µM. Also, the Ki at HCV NS3/4A protease came out at 0.3 nM. Regarding `COc1ccc2c(O[C@@H]3C[C@H]4C(=O)N[C@]5(C(=O)NS(=O)(=O)C6CC6)C[C@H]5/C=C\CCCCN(C)C(=O)[C@@H]4C3)cc(-n3ccc(C(C)C)n3)nc2c1C` [Compound 66, N-[17-[2-(3-isopropylpyrazol-1-yl)-7-methoxy-8-methyl-quinolin-4-yloxy]-13-methyl-2,14-dioxo-3,13-diazatricyclo[13.3.0.0^4,6]octadec-7-ene-4-carbonyl](cyclopropyl)sulfonamide], the response in data set [2] (Hepatitis C virus, Huh-7, 72 h) was half-maximal at 0.0036 µM (EC50). In other words, the single-digit nanomolar range.

`CCc1c(OC)ccc2c(O[C@@H]3C[C@H]4C(=O)N[C@]5(C(=O)NS(=O)(=O)C6CC6)C[C@H]5/C=C\CCCCN(C)C(=O)[C@@H]4C3)cc(-c3nc(C(C)C)cs3)nc12` [Compound 72] displayed an EC50 in data set [2] (Hepatitis C virus, Huh-7, 72 h) of 0.066 µM. On the same count and under the same terms, to `COc1ccc2c(O[C@@H]3C[C@H]4C(=O)N[C@]5(C(=O)NS(=O)(=O)C6CC6)C[C@H]5/C=C\CCCCN(C)C(=O)[C@@H]4C3)cc(-c3nc(C(C)C)cs3)nc2c1F` [Compound 75] belongs 0.0575 µM.

In the case of `COc1ccc2c(O[C@H]3C[C@H]4C(=O)NCCCCC/C=C\[C@@H]5C[C@@]5(C(=O)NS(=O)(=O)C5CC5)NC(=O)[C@@H]4C3)cc(-c3nc(C(C)C)cs3)nc2c1C` [Compound 82], the EC50 in data set [2] (Hepatitis C virus, Huh-7, 72 h) is 8.32 µM. Also, at HCV NS3/4A protease, the Ki is 9.4 nM. Compound `COc1ccc2c(O[C@@H]3C[C@H]4C(=O)N[C@]5(C(=O)NS(=O)(=O)C6CC6)C[C@H]5/C=C\CCCCN(C)C(=O)[C@@H]4C3)cc(-c3cccc(C)n3)nc2c1C` [Compound 103, Cyclopropanesulfonic acid {17-[2-(6-methyl-2-pyridyl)-7-methoxy-8-methyl-quinolin-4-yloxy]-13-methyl-2,14-dioxo-3,13-diaza-tricyclo[13.3.0.0^4,6]octadec-7-ene-4-carbonyl}-amide] displayed an EC50 in data set [2] (Hepatitis C virus, Huh-7, 72 h) of 0.0063 µM. On to “N-[17-[8-ethyl-2-(4-isopropylthiazole-2-yl)-7-methoxyquinolin-4-yloxy]-13-methyl-2,14-dioxo-3,13-diazatricyclo[13.3.0.0^4,6]octadec-7-ene-4-carbonyl](cyclo-propyl)sulfonamide [Compound 71]”, for which, in data set [2], a half-maximal response (EC50) required 10 µM.

For the compound “N-[18-[2-(4-isopropylthiazole-2-yl)-7-methoxy-8-methylquinolin-4-yl-oxy]-2,15-dioxo-3,14-diazatricyclo[14.3.0.0^4,6]nonadec-7-ene-4-carbonyl](cyclo-propyl)sulfonamide [Compound 81]”, the EC50 in data set [2] was 10 µM. Further, at HCV NS3/4A protease, the Ki worked out at 1000 nM.
